Assay results published in ChEMBL document CHEMBL4680265, “Anti-tubulin agent vinorelbine inhibits metastasis of cancer cells by regulating epithelial-mesenchymal transition” (Eur J Med Chem, 2020).
Activity calls are given as the source filed them. The calls are words filed in the database; no cut-off is given here.

Key:
[1] = tested on: NCI-H1975; experiment: Cytotoxicity against human NCI-H1975 cells assessed as reduction in cell viability incubated for 48 hrs by MTT assay; assay type: functional, cell-based; settings: NCI-H1975, 48 h
[2] = tested on: HepG2; experiment: Cytotoxicity against human HepG2 cells assessed as reduction in cell viability incubated for 48 hrs by MTT assay; assay type: functional, cell-based; settings: HepG2, 48 h
[3] = tested on: HCT-116; experiment: Cytotoxicity against human HCT-116 cells assessed as reduction in cell viability incubated for 48 hrs by MTT assay; assay type: functional, cell-based; settings: HCT-116, 48 h
[4] = tested on: NCI-H1975; experiment: Cytotoxicity against human NCI-H1975 cells assessed as effect on cell morphology incubated for 48 hrs by DAPI staining based fluorescence microscopy; assay type: functional; settings: dose 1-100 nM
[5] = tested on: HepG2; experiment: Cytotoxicity against human HepG2 cells assessed as effect on cell morphology incubated for 48 hrs by DAPI staining based fluorescence microscopy; assay type: functional; settings: dose 0.1-10 µM
[6] = tested on: HCT-116; experiment: Cytotoxicity against human HCT-116 cells assessed as effect on cell morphology incubated for 48 hrs by DAPI staining based fluorescence microscopy; assay type: functional; settings: dose 0.01-1 µM
[7] = tested on: NCI-H1975; experiment: Inhibition of colony formation in human NCI-H1975 cells at 1 to 100 nM incubated for 3 to 4 days by crystal violet staining based assay; assay type: functional, cell-based; settings: dose 1-100 nM, time 3-4 day
[8] = tested on: HepG2; experiment: Inhibition of colony formation in human HepG2 cells at 0.1 to 10 uM incubated for 3 to 4 days by crystal violet staining based assay; assay type: functional, cell-based; settings: dose 0.1-10 µM, time 3-4 day
[9] = tested on: HCT-116; experiment: Inhibition of colony formation in human HCT-116 cells at 0.01 to 1 uM incubated for 3 to 4 days by crystal violet staining based assay; assay type: functional, cell-based; settings: dose 0.01-1 µM, time 3-4 day
[10] = tested on: NCI-H1975; experiment: Induction of cell cycle arrest in human NCI-H1975 cells assessed as increase in G2/M phase accumulation at 1 nM incubated for 24 hrs by propidium iodide staining based flow cytometry analysis relative to control; assay type: functional
[11] = tested on: NCI-H1975; experiment: Induction of cell cycle arrest in human NCI-H1975 cells assessed as increase in G2/M phase accumulation at 10 nM incubated for 24 hrs by propidium iodide staining based flow cytometry analysis relative to control; assay type: functional
[12] = tested on: NCI-H1975; experiment: Induction of cell cycle arrest in human NCI-H1975 cells assessed as increase in G2/M phase accumulation at 100 nM incubated for 24 hrs by propidium iodide staining based flow cytometry analysis relative to control; assay type: functional
[13] = tested on: HepG2; experiment: Induction of cell cycle arrest in human HepG2 cells assessed as increase in G2/M phase accumulation at 0.1 to 10 uM incubated for 24 hrs by propidium iodide staining based flow cytometry analysis; assay type: functional; settings: dose 0.1-10 µM
[14] = tested on: HCT-116; experiment: Induction of cell cycle arrest in human HCT-116 cells assessed as increase in G2/M phase accumulation at 0.01 to 1 uM incubated for 24 hrs by propidium iodide staining based flow cytometry analysis; assay type: functional; settings: dose 0.01-1 µM
[15] = tested on: NCI-H1975; experiment: Induction of cell cycle arrest in human NCI-H1975 cells assessed as decrease in cyclin B1 level at 1 to 100 nM incubated for 24 hrs by Western blot analysis; assay type: functional, cell-based; settings: dose 1-100 nM
[16] = tested on: HepG2; experiment: Induction of cell cycle arrest in human HepG2 cells assessed as decrease in cyclin B1 level at 0.1 to 10 uM incubated for 24 hrs by Western blot analysis; assay type: functional, cell-based; settings: dose 0.1-10 µM
[17] = tested on: HCT-116; experiment: Induction of cell cycle arrest in human HCT-116 cells assessed as decrease in cyclin B1 level at 0.01 to 1 uM incubated for 24 hrs by Western blot analysis; assay type: functional, cell-based; settings: dose 0.01-1 µM
[18] = tested on: NCI-H1975; experiment: Induction of apoptosis in human NCI-H1975 cells assessed as increase in early apoptotic cells at 1 to 100 nM incubated for 48 hrs by annexin V-FITC and PI staining based flow cytometry analysis; assay type: functional, cell-based; settings: dose 1-100 nM
[19] = tested on: NCI-H1975; experiment: Induction of apoptosis in human NCI-H1975 cells assessed as increase in late apoptotic cells at 1 to 100 nM incubated for 48 hrs by annexin V-FITC and PI staining based flow cytometry analysis; assay type: functional, cell-based; settings: dose 1-100 nM
[20] = tested on: HepG2; experiment: Induction of apoptosis in human HepG2 cells assessed as increase in late apoptotic cells at 0.1 to 10 uM incubated for 48 hrs by annexin V-FITC and PI staining based flow cytometry analysis; assay type: functional, cell-based; settings: dose 0.1-10 µM
[21] = tested on: HCT-116; experiment: Induction of apoptosis in human HCT-116 cells assessed as increase in late apoptotic cells at 0.01 to 1 uM incubated for 48 hrs by annexin V-FITC and PI staining based flow cytometry analysis; assay type: functional, cell-based; settings: dose 0.01-1 µM
[22] = tested on: NCI-H1975; experiment: Induction of apoptosis in human NCI-H1975 cells assessed as decrease in Bcl-2 expression at 1 to 100 nM incubated for 48 hrs by Western blot analysis; assay type: functional, cell-based; settings: dose 1-100 nM
[23] = tested on: NCI-H1975; experiment: Induction of apoptosis in human NCI-H1975 cells assessed as decrease in Bcl-xl expression at 1 to 100 nM incubated for 48 hrs by Western blot analysis; assay type: functional, cell-based; settings: dose 1-100 nM
[24] = tested on: NCI-H1975; experiment: Induction of apoptosis in human NCI-H1975 cells assessed as increase in Bax expression at 1 to 100 nM incubated for 48 hrs by Western blot analysis; assay type: functional, cell-based; settings: dose 1-100 nM
[25] = tested on: HepG2; experiment: Induction of apoptosis in human HepG2 cells assessed as decrease in Bcl-2 expression at 0.1 to 10 uM incubated for 48 hrs by Western blot analysis; assay type: functional, cell-based; settings: dose 0.1-10 µM
[26] = tested on: HepG2; experiment: Induction of apoptosis in human HepG2 cells assessed as decrease in Bcl-xl expression at 0.1 to 10 uM incubated for 48 hrs by Western blot analysis; assay type: functional, cell-based; settings: dose 0.1-10 µM
[27] = tested on: HepG2; experiment: Induction of apoptosis in human HepG2 cells assessed as increase in Bax expression at 0.1 to 10 uM incubated for 48 hrs by Western blot analysis; assay type: functional, cell-based; settings: dose 0.1-10 µM
[28] = tested on: HCT-116; experiment: Induction of apoptosis in human HCT-116 cells assessed as decrease in Bcl-2 expression at 0.01 to 1 uM incubated for 48 hrs by Western blot analysis; assay type: functional, cell-based; settings: dose 0.01-1 µM
[29] = tested on: HCT-116; experiment: Induction of apoptosis in human HCT-116 cells assessed as decrease in Bcl-xl expression at 0.01 to 1 uM incubated for 48 hrs by Western blot analysis; assay type: functional, cell-based; settings: dose 0.01-1 µM
[30] = tested on: HCT-116; experiment: Induction of apoptosis in human HCT-116 cells assessed as increase in Bax expression at 0.01 to 1 uM incubated for 48 hrs by Western blot analysis; assay type: functional, cell-based; settings: dose 0.01-1 µM

With CCC1=C[C@@H]2CN(C1)Cc1c([nH]c3ccccc13)[C@@](C(=O)OC)(c1cc3c(cc1OC)N(C)[C@H]1[C@@](O)(C(=O)OC)[C@H](OC(C)=O)[C@]4(CC)C=CCN5CC[C@]31[C@@H]54)C2 [VINORELBINE] as the compound, how does the IC50 [1] read?
Its IC50 is 8 nM.

And the IC50 [2]?
The IC50 was 110 nM.

What about the IC50 [3] of the same compound?
Its IC50 is 14.9 nM.

And the Activity [4]?
The Activity was “Dose-dependent effect”.

What about the Activity [5] of the same compound?
Its Activity is “Dose-dependent effect”.

What about the Activity [6] of the same compound?
The Activity was “Dose-dependent effect”.

And the inhibition [7]?
The inhibition was “Active”.

And the inhibition [8]?
Its inhibition is “Active”.

And the inhibition [9]?
Its inhibition is “Active”.

What about the Activity [10] of the same compound?
The Activity was 17.39%.

What about the Activity [11] of the same compound?
Its Activity is 34.31%.

And the Activity [12]?
Its Activity is 51.85%.

What about the Activity [13] of the same compound?
Its Activity is “Active”.

What about the Activity [14] of the same compound?
The Activity was “Active”.

What about the Activity [15] of the same compound?
The Activity was “Active”.

And the Activity [16]?
Its Activity is “Active”.

What about the Activity [17] of the same compound?
Its Activity is “inactive”.

And the Activity [18]?
The Activity was “Active”.

And the Activity [19]?
Its Activity is “Active”.

What about the Activity [20] of the same compound?
The Activity was “Active”.

And the Activity [21]?
Its Activity is “Active”.

What about the Activity [22] of the same compound?
Its Activity is “Active”.

What about the Activity [23] of the same compound?
The Activity was “Active”.

And the Activity [24]?
Its Activity is “Active”.

What about the Activity [25] of the same compound?
Its Activity is “Active”.

And the Activity [26]?
Its Activity is “Active”.

What about the Activity [27] of the same compound?
The Activity was “Active”.

What about the Activity [28] of the same compound?
The Activity was “Active”.

And the Activity [29]?
Its Activity is “Active”.

And the Activity [30]?
Its Activity is “Active”.
